Counter-ions that a name gives are not always drawn. Like-named read-outs stand apart in the source and are kept apart here.
What was measured:
[1] = pKa of the ionisable groups of ambrisentan; format: physicochemical
[2] = Solubility of ambrisentan solid forms in water at 25 °C; format: physicochemical; settings: approximate values
Experimental: Solubility of all the salts are considerably higher compared to solubility of ambrisentan in the salt free form. Table. 1 Solubility of ambrisentan solid forms in water at 25 °C

| SMILES | Solubility [2] | Solubility ([2]; sodium salt) [µg/mL] | further results |
| --- | --- | --- | --- |
| COC(c1ccccc1)(c1ccccc1)[C@H](Oc1nc(C)cc(C)n1)C(=O)O [Ambrisentan (Form R), (S)-2-(4,6-dimethylpyrimidin-2-yloxy)-3-methoxy-3,3-diphenylpropanoic acid] | ∼ 0.05 mg/ml |  | pKa ([1]; read-out: pKa of nitrogen in pyrimidine ring): 2.98 ± 0.3; pKa ([1]; read-out: pKa of the carboxylic group): 0.93 ± 0.1 |
| COC(c1ccccc1)(c1ccccc1)[C@H](Oc1nc(C)cc(C)n1)C(=O)O [Ambrisentan phosphate salt, ambrisentan phosphate salt] |  |  | Solubility ([2]; phosphate salt): ∼ 0.1 mg/ml |
| COC(c1ccccc1)(c1ccccc1)[C@H](Oc1nc(C)cc(C)n1)C(=O)O [Ambrisentan sodium salt (amorphous), ambrisentan sodium salt] |  | >10000 |  |
| COC(c1ccccc1)(c1ccccc1)[C@H](Oc1nc(C)cc(C)n1)C(=O)O [Ambrisentan sodium salt (crystalline), ambrisentan sodium salt] |  | >5000 |  |
| COC(c1ccccc1)(c1ccccc1)[C@H](Oc1nc(C)cc(C)n1)C(=O)O [Ambrisentan tert-butylammonium salt, ambrisentan tert-butylammonium salt] | >6000 µg/mL |  |  |
